In PubChem BioAssay AID2060882 (Molecular Pharmacology Branch, DTP, NCI, 2025):

Test system: 898857-211-R-J1-PDC complex spheroids, growth % test/control
Assay: Anticancer human tumor 898857-211-R-J1-PDC patient-derived melanoma cell line growth inhibition [RAS]
Conditions: for IC50: curve of first compound; for viability, T/C: stronger effect = lower value
In short: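 Multi-cell-type spheroids: tumor cells plus HUVEC endothelial cells and mesenchymal stem cells. RAS-pathway inhibitors were combined with targeted agents, each dosed in half-log steps down from clinical Cmax, or from 10 microM when Cmax was unknown.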

[1] = second compound 0.000949 µM, first compound 0.0316 µM
[2] = second compound 0.000949 µM, first compound 0.1 µM
[3] = second compound 0.000949 µM, first compound 0.316 µM
[4] = second compound 0.000949 µM, first compound 1 µM
[5] = second compound 0.003 µM, first compound 0.0316 µM
[6] = second compound 0.003 µM, first compound 0.1 µM
[7] = second compound 0.003 µM, first compound 0.316 µM
[8] = second compound 0.003 µM, first compound 1 µM
[9] = second compound 0.00949 µM, first compound 0.0316 µM
[10] = second compound 0.00949 µM, first compound 0.1 µM
[11] = second compound 0.00949 µM, first compound 0.316 µM
[12] = second compound 0.00949 µM, first compound 1 µM
[13] = second compound 0.03 µM, first compound 0.0316 µM
[14] = second compound 0.03 µM, first compound 0.1 µM
[15] = second compound 0.03 µM, first compound 0.316 µM
[16] = second compound 0.03 µM, first compound 1 µM
[17] = second compound 0.0949 µM, first compound 0.0316 µM
[18] = second compound 0.0949 µM, first compound 0.1 µM
[19] = second compound 0.0949 µM, first compound 0.316 µM
[20] = second compound 0.0949 µM, first compound 1 µM
[21] = second compound 0.3 µM, first compound 0.0316 µM
[22] = second compound 0.3 µM, first compound 0.1 µM
[23] = second compound 0.3 µM, first compound 0.316 µM
[24] = second compound 0.3 µM, first compound 1 µM
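Also: spheroids exposed to compound for seven days before readout.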
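For viability, T/C in this document: 100% = DMSO vehicle control wells.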

## CC(=O)OC12COC1CC(O)C1(C)C(=O)C(O)C3=C(C)C(OC(=O)C(O)C(NC(=O)OC(C)(C)C)c4ccccc4)CC(O)(C(OC(=O)c4ccccc4)C21)C3(C)C (centres undefined) + CCn1c(-c2cc(N3CCN(C)CC3)cnc2C(C)OC)c2c3cc(ccc31)-c1csc(n1)CC(NC(=O)C1CC1C)C(=O)N1CCCC(N1)C(=O)OCC(C)(C)C2
Second compound 0.000949 µM
  IC50: < 31.6 nM
Second compound 0.003 µM
  IC50: < 31.6 nM
Second compound 0.00949 µM
  IC50: < 31.6 nM
Second compound 0.03 µM
  IC50: < 31.6 nM
Second compound 0.0949 µM
  IC50: < 31.6 nM
Second compound 0.3 µM
  IC50: < 31.6 nM
[1]
  viability, T/C: 11.2%
[2]
  viability, T/C: 9.4%
[3]
  viability, T/C: 9.05%
[4]
  viability, T/C: 13.3%
Second compound 0.000949 µM, first compound 3.16 µM
  viability, T/C: 13.9%
Second compound 0.000949 µM, first compound 10 µM
  viability, T/C: 14.7%
[5]
  viability, T/C: 11.4%
[6]
  viability, T/C: 12.9%
[7]
  viability, T/C: 9.53%
[8]
  viability, T/C: 12.5%
Second compound 0.003 µM, first compound 3.16 µM
  viability, T/C: 12.7%
Second compound 0.003 µM, first compound 10 µM
  viability, T/C: 12.8%
[9]
  viability, T/C: 10.9%
[10]
  viability, T/C: 11.4%
[11]
  viability, T/C: 13%
[12]
  viability, T/C: 12.4%
Second compound 0.00949 µM, first compound 3.16 µM
  viability, T/C: 14.6%
Second compound 0.00949 µM, first compound 10 µM
  viability, T/C: 14.2%
[13]
  viability, T/C: 10.9%
[14]
  viability, T/C: 10.7%
[15]
  viability, T/C: 13.3%
[16]
  viability, T/C: 12.9%
Second compound 0.03 µM, first compound 3.16 µM
  viability, T/C: 15.6%
Second compound 0.03 µM, first compound 10 µM
  viability, T/C: 14.6%
[17]
  viability, T/C: 12.1%
[18]
  viability, T/C: 12.2%
[19]
  viability, T/C: 12.3%
[20]
  viability, T/C: 14.4%
Second compound 0.0949 µM, first compound 3.16 µM
  viability, T/C: 14.4%
Second compound 0.0949 µM, first compound 10 µM
  viability, T/C: 15.4%
[21]
  viability, T/C: 12.9%
[22]
  viability, T/C: 11.9%
[23]
  viability, T/C: 11.8%
[24]
  viability, T/C: 15.8%
Second compound 0.3 µM, first compound 3.16 µM
  viability, T/C: 14.9%
Second compound 0.3 µM, first compound 10 µM
  viability, T/C: 18.7%

## Nc1ccn(C2OC(CO)C(O)C2(F)F)c(=O)n1 (centres undefined) + CCn1c(-c2cc(N3CCN(C)CC3)cnc2C(C)OC)c2c3cc(ccc31)-c1csc(n1)CC(NC(=O)C1CC1C)C(=O)N1CCCC(N1)C(=O)OCC(C)(C)C2
Second compound 0.000949 µM
  IC50: 5.06 nM
Second compound 0.003 µM
  IC50: 4.37 nM
Second compound 0.00949 µM
  IC50: 4.35 nM
Second compound 0.03 µM
  IC50: 5.4 nM
Second compound 0.0949 µM
  IC50: 5.47 nM
Second compound 0.3 µM
  IC50: 6.69 nM
Second compound 0.000949 µM, first compound 0.00316 µM
  viability, T/C: 74%
Second compound 0.000949 µM, first compound 0.01 µM
  viability, T/C: 15.3%
[1]
  viability, T/C: 4.42%
[2]
  viability, T/C: 3.83%
[3]
  viability, T/C: 4.13%
[4]
  viability, T/C: 5.1%
Second compound 0.003 µM, first compound 0.00316 µM
  viability, T/C: 64.6%
Second compound 0.003 µM, first compound 0.01 µM
  viability, T/C: 13.1%
[5]
  viability, T/C: 4.34%
[6]
  viability, T/C: 4.05%
[7]
  viability, T/C: 5.71%
[8]
  viability, T/C: 4.93%
Second compound 0.00949 µM, first compound 0.00316 µM
  viability, T/C: 63.7%
Second compound 0.00949 µM, first compound 0.01 µM
  viability, T/C: 14.4%
[9]
  viability, T/C: 4.77%
[10]
  viability, T/C: 4.27%
[11]
  viability, T/C: 4.44%
[12]
  viability, T/C: 4.67%
Second compound 0.03 µM, first compound 0.00316 µM
  viability, T/C: 78%
Second compound 0.03 µM, first compound 0.01 µM
  viability, T/C: 18%
[13]
  viability, T/C: 4.69%
[14]
  viability, T/C: 3.93%
[15]
  viability, T/C: 5.09%
[16]
  viability, T/C: 5.74%
Second compound 0.0949 µM, first compound 0.00316 µM
  viability, T/C: 72%
Second compound 0.0949 µM, first compound 0.01 µM
  viability, T/C: 25.8%
[17]
  viability, T/C: 4.97%
[18]
  viability, T/C: 4.59%
[19]
  viability, T/C: 5.07%
[20]
  viability, T/C: 4.89%
Second compound 0.3 µM, first compound 0.00316 µM
  viability, T/C: 88.6%
Second compound 0.3 µM, first compound 0.01 µM
  viability, T/C: 29.3%
[21]
  viability, T/C: 5.64%
[22]
  viability, T/C: 3.79%
[23]
  viability, T/C: 4.58%
[24]
  viability, T/C: 4.96%
